Experimental data as given in US20250136618A1, “ANTIBIOTIC PYRAZINOTHIAZINE DERIVATIVES AND PROCESS OF PREPARATION THEREOF” (Bugworks Research India PVT Ltd, priority 2021, published 2025).
≈ marks a conversion by molar mass, not a printed value.

Legend:
Assay type in all cases: cell-based
hERG potassium channel = hERG potassium channel (Homo sapiens (Human), UniProt Q12809); assay: hERG inhibition assay (Qpatch HTX automated electrophysiology); settings: CHO cell line expressing hERG, whole-cell patch clamp
Procedure: Electrophysiological recordings were made from a Chinese Hamster Ovary cell line stably expressing the full-length hERG potassium channel. Single cell ionic currents were measured in whole-cell patch clamp configuration at room temperature (21-23° C.) using the Qpatch HTX platform (Sophion). Intracellular solution contained (mM): 120 KF, 20 KCl, 10 EGTA, 10 HEPES and was buffered to pH 7.3. […] Cells were clamped at a holding potential of −80 mV. Cells were stepped to +20 mV for 2 s then −40 mV for 3 s before returning to the holding potential. […] Compounds were then incubated for 2 minutes prior to a second measurement of ion channel current using an identical pulse train.

[1] = system: Escherichia coli ATCC 25922; assay: Minimum Inhibitory Concentration (MIC) in LB media; settings: Escherichia coli, ATCC25922, read-out: Minimum Inhibitory Concentration E. coli ATCC 25922
Source text: (§1) The compounds of Formula Ia and Formula Ib are of interest due to their potent antibacterial effects. The ability of the compounds disclosed herein to achieve an antibacterial effect may be evaluated with regard to their ability to inhibit the growth of bacterial species like Escherichia coli ATCC 25922, Staphylococcus aureus ATCC 29213, Klebsiella pneumoniae ATCC 13883, Acinetobacter baumannii ATCC 19606, Pseudomonas aeruginosa ATCC 27853 and Enterococcus faecalis ATCC 29212 using an assay based on the following Minimum Inhibitory Concentration (MIC) protocol:
(§2) The test bacteria were grown in Luria Bertani Broth (HIMEDIA M1245), 25 g of the powder was dissolved in 1000 ml distilled water and sterilized by autoclaving at 15 lbs pressure (121° C.) for 20 minutes. The medium sterility was checked by incubating at 37° C. for a period of 48 h. Bacterial cultures that were stored as glycerol stocks at −80° C. were subcultured on LB agar plates to obtain isolated colonies. A single colony of each strain was cultured in LB broth. The cultures were incubated at 37° C., 200 rpm till they reached an optical density (OD at 600 nm) of 0.8 to 1. This log phase culture was diluted in LB broth to a cell number of 5-8*10^5 CFU/mL to be used as inoculum for MIC experiments. Test compounds were dissolved in dimethyl sulfoxide (DMSO) to a stock concentration of 4 mg/ml. A two-fold dilution series of this DMSO stock was prepared in a 96 well V bottom microtitre plate from rows A to H. A 3 μL volume of these dilutions are transferred to a 96-well flat bottom microtitre assay plate. Controls to monitor the effects of DMSO and media sterility were included. Each well was inoculated with 150 μL of the above diluted culture. The plates were incubated at 37° C. overnight in a humidified incubator. The following morning, the plates were read using a Spectrophotometer at 600 nm wavelength. […] The antibacterial activity (MIC) determined against representative gram-positive (S. aureus, E. faecalis) and gram-negative (E. coli, Aeruginosa, K. pneumoniae, and A. baumannii) pathogen are reported Table 1.

[2] = system: Pseudomonas aeruginosa ATCC 27853; assay: Minimum Inhibitory Concentration (MIC) in LB media; settings: Pseudomonas aeruginosa, ATCC27853
Source text: as §1, §2

[3] = system: Klebsiella pneumoniae ATCC 13883; assay: Minimum Inhibitory Concentration (MIC) in LB media; settings: Klebsiella pneumoniae, ATCC13883, read-out: Minimum Inhibitory Concentration K. pneumoniae ATCC 13883
Source text: as §1, §2

[4] = system: Staphylococcus aureus ATCC 29213; assay: Minimum Inhibitory Concentration (MIC) in LB media; settings: Staphylococcus aureus, ATCC29213, read-out: Minimum Inhibitory Concentration S. aureus ATCC 29213
Source text: as §1, §2

[5] = system: Acinetobacter baumannii ATCC 19606; assay: Minimum Inhibitory Concentration (MIC) in LB media; settings: Acinetobacter baumannii, ATCC19606
Source text: as §1, §2

[6] = system: Enterococcus faecalis ATCC 29212; assay: Minimum Inhibitory Concentration (MIC) in LB media; settings: Enterococcus faecalis, ATCC29212, read-out: Minimum Inhibitory Concentration E. faecalis ATCC 29212
Source text: as §1, §2

CHO-K1 cells = assay: In-vitro micronucleus assay
Procedure: Genetic toxicology studies were performed on the compounds of the present disclosure to assess their ability to cause DNA damage. The in-vitro micronucleus assay measured the concentration (μM) of the compound at which micronuclei formation occurred. A micronuclei formation at lower concentration indicates more genetic damage or genotoxicity.
Micronucleus formation is a hallmark of genotoxicity, and the micronucleus assay is an important component of genotoxicity screening. Micronuclei are chromatin-containing bodies that represent fragments or even whole chromosomes that were not incorporated into a daughter cell nucleus at mitosis. The purpose of the assay is to detect agents that induce chromosome damage leading to the induction of micronuclei in interphase cells. The in vitro micronucleus assay was conducted in CHO-K1 cells according to the procedure described by Diaz, D et al [Mutat Res. 630(1-2):1-13. […] The formation of the micronucleus is identified by image-based high content analysis from binucleated cells.

Pseudomonas aeruginosa = assay: MIC90 determination, clinical strains (CLSI); settings: N=34
Morganella morganii = assay: MIC90 determination, clinical strains (CLSI); settings: N=11
Proteus mirabilis = assay: MIC90 determination, clinical strains (CLSI); settings: N=12
Acinetobacter baumannii = assay: MIC90 determination, clinical strains (CLSI); settings: N=38
Citrobacter freundii = assay: MIC90 determination, clinical strains (CLSI); settings: N=19
Klebsiella pneumoniae = assay: MIC90 determination, clinical strains (CLSI); settings: N=86
Enterobacter cloacae = assay: MIC90 determination, clinical strains (CLSI); settings: N=26
Escherichia coli = assay: MIC90 determination, clinical strains (CLSI); settings: N=38
Serratia marcescens = assay: MIC90 determination, clinical strains (CLSI); settings: N=15
[7] = system: Providencia rettgeri, P. stuartii; assay: MIC90 determination, clinical strains (CLSI); settings: N=12
[8] = system: Klebsiella aerogenes, K. oxytoca; assay: MIC90 determination, clinical strains (CLSI); settings: N=17

Chain of hERG potassium channel (Q12809 whole entry): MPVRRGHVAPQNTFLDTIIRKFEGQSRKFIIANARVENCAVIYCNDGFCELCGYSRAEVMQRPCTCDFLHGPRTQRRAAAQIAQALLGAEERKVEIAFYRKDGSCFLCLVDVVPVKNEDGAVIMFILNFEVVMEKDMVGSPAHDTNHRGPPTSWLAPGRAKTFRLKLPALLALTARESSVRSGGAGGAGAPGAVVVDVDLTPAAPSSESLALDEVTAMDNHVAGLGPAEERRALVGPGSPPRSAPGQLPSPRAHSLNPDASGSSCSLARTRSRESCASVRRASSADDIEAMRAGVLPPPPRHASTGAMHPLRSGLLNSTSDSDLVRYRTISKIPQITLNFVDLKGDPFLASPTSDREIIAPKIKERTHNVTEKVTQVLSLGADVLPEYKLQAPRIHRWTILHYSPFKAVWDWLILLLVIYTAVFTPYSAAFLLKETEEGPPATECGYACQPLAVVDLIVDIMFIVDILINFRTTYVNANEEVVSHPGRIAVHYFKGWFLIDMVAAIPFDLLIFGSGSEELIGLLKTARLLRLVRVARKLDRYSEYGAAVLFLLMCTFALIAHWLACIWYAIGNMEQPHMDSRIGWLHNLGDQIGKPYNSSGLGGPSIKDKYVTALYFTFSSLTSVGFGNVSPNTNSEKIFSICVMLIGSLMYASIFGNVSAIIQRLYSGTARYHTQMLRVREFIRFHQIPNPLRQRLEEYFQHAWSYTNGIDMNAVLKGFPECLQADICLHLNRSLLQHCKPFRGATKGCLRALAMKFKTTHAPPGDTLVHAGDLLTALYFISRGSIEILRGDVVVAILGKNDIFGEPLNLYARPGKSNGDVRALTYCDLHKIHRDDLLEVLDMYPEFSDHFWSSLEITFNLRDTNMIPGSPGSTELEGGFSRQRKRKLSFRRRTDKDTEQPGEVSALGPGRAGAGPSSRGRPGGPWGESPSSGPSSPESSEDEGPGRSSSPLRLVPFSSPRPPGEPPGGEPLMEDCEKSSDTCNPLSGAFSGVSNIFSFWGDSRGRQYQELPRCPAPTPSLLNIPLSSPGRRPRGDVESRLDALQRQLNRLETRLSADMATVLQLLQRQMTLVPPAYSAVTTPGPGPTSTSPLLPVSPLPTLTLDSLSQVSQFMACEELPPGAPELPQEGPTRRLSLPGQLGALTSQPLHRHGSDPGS

Row | Compound | MIC [1] [µg/mL] | MIC [2] [µg/mL] | MIC [3] [µg/mL] | MIC [4] [µg/mL] | MIC [5] [µg/mL] | MIC [6] [µg/mL] | IC50 (hERG potassium channel) [µM] | genotoxicity risk (in words) (CHO-K1 cells) | % (in-vitro micronucleus assay) (CHO-K1 cells; Chinese hamster) [%] | In vitro micronucleus forming concentration (CHO-K1 cells; Chinese hamster) [µM] | also measured
1 | [2H]C([2H])([2H])N1C(=O)CNc2ccc(OCCNCC3CN(c4cnc5c(n4)NC(=O)CS5)C(=O)O3)nc21 (stereo in doubt) [Compound 9, (R)-5-(((2-((4-(methyl-d3)-3-oxo-1,2,3,4-tetrahydropyrido[2,3-b]pyrazin-6-yl)oxy)ethyl)amino)methyl)-3-(3-oxo-3,4-dihydro-2H-pyrazino[2,3-b][1,4]thiazin-6-yl) oxazolidin-2-one] | 0.06 (≈ 0.123 µM) | 1 (≈ 2.04 µM) | 0.06 (≈ 0.123 µM) | < 0.015 | 0.03 (≈ 0.0613 µM) | 0.03 (≈ 0.0613 µM) | 141 | completely devoid of any genotoxicity risk | 0.51 | >1000 | –
2 | CN1C(=O)CNc2ccc(OCCNC[C@H]3CN(c4cnc5c(n4)NC(=O)CS5)C(=O)O3)nc21 [Compound 6, (S)-5-(((2-((4-methyl-3-oxo-1,2,3,4-tetrahydropyrido[2,3-b]pyrazin-6-yl)oxy)ethyl)amino)methyl)-3-(3-oxo-3,4-dihydro-2H-pyrazino[2,3-b][1,4]thiazin-6-yl)oxazolidin-2-one] | 0.06 (≈ 0.123 µM) | 0.5 (≈ 1.03 µM) | 0.06 (≈ 0.123 µM) | < 0.015 | 0.06 (≈ 0.123 µM) | 0.06 (≈ 0.123 µM) | > 300 | completely devoid of any genotoxicity risk | 0.4 | >1000 | micronucleus formation (in words) (CHO-K1 cells): did not induce micronucleus formation
3 | CN1C(=O)CNc2cc(F)c(OCCNC[C@H]3CN(c4cnc5c(n4)NC(=O)CS5)C(=O)O3)nc21 [Compound 8, (S)-5-(((2-((7-fluoro-4-methyl-3-oxo-1,2,3,4-tetrahydropyrido [2,3-b]pyrazin-6-yl)oxy)ethyl)amino)methyl)-3-(3-oxo-3,4-dihydro-2H-pyrazino[2,3-b][1,4]thiazin-6-yl)oxazolidin-2-one] | 0.03 (≈ 0.0595 µM) | 1 (≈ 1.98 µM) | 0.06 (≈ 0.119 µM) | < 0.015 | 0.06 (≈ 0.119 µM) | 0.125 (≈ 0.248 µM) | > 300 | completely devoid of any genotoxicity risk | 0.5 | >1000 | –
4 | C[C@@H](O)[C@H]1C(=O)N2C(C(=O)O)=C(S[C@@H]3CN[C@H](C(=O)N(C)C)C3)[C@H](C)[C@H]12 [Meropenem, reference compound] | – | – | – | – | – | – | – | – | – | – | MIC 90 Pseudomonas aeruginosa (Pseudomonas aeruginosa): 16 µg/mL (≈ 41.7 µM); MIC 90 Morganella morganii (Morganella morganii): 0.12 µg/mL (≈ 0.313 µM); MIC 90 Proteus mirabilis (Proteus mirabilis): 1 µg/mL (≈ 2.61 µM); MIC 90 Acinetobacter baumannii (Acinetobacter baumannii): >8 µg/mL; MIC 90 Citrobacter freundii (Citrobacter freundii): 8 µg/mL (≈ 20.9 µM); MIC 90 Klebsiella pneumoniae (Klebsiella pneumoniae): 16 µg/mL (≈ 41.7 µM); MIC 90 Enterobacter cloacae (Enterobacter cloacae): 16 µg/mL (≈ 41.7 µM); MIC 90 Escherichia coli (Escherichia coli): 2 µg/mL (≈ 5.22 µM); MIC 90 Serratia marcescens (Serratia marcescens): 16 µg/mL (≈ 41.7 µM); MIC 90 Providencia rettgeri, P. stuartii [7]: 4 µg/mL (≈ 10.4 µM); MIC 90 Klebsiella aerogenes, K. oxytoca [8]: 16 µg/mL (≈ 41.7 µM)
5 | CO[C@@]12[C@H](COC(N)=O)C3=C(C(=O)C(C)=C(N)C3=O)N1C[C@@H]1N[C@@H]12 [Mitomycin C, reference compound] | – | – | – | – | – | – | – | – | – | – | % (in-vitro micronucleus assay) (CHO-K1 cells; CHO-K1 cells): 1.98%; In vitro micronucleus forming concentration (CHO-K1 cells; CHO-K1 cells): 0.300 µM

Further lines, with some results ahead:

Row | MIC [1] [µg/mL] | MIC [2] [µg/mL] | MIC [3] [µg/mL] | MIC [4] [µg/mL] | MIC [5] [µg/mL] | MIC [6] [µg/mL] | Compound | IC50 (hERG potassium channel) [µM] | genotoxicity risk (in words) (CHO-K1 cells) | % (in-vitro micronucleus assay) (CHO-K1 cells; Chinese hamster) [%] | In vitro micronucleus forming concentration (CHO-K1 cells; Chinese hamster) [µM] | also measured
6 | 0.012 (≈ 0.0362 µM) | 0.1 (≈ 0.302 µM) | 0.05 (≈ 0.151 µM) | 0.4 (≈ 1.21 µM) | 0.4 (≈ 1.21 µM) | 0.4 (≈ 1.21 µM) | O=C(O)c1cn(C2CC2)c2cc(N3CCNCC3)c(F)cc2c1=O [Ciprofloxacin, reference compound] | – | – | – | – | –
7 | 0.03 (≈ 0.0617 µM) | 1 (≈ 2.06 µM) | 0.06 (≈ 0.123 µM) | < 0.015 | 0.06 (≈ 0.123 µM) | 0.125 (≈ 0.257 µM) | CN1C(=O)CNc2ccc(OCCNC[C@@H]3CN(c4cnc5c(n4)NC(=O)CS5)C(=O)O3)nc21 [Compound 5, (R)-5-(((2-((4-methyl-3-oxo-1,2,3,4-tetrahydropyrido[2,3-b]pyrazin-6-yl)oxy)ethyl)amino)methyl)-3-(3-oxo-3,4-dihydro-2H-pyrazino[2,3-b][1,4]thiazin-6-yl)oxazolidin-2-one] | > 300 | completely devoid of any genotoxicity risk | 0.5 | >1000 | micronucleus formation (in words) (CHO-K1 cells): did not induce micronucleus formation
8 | 0.03 (≈ 0.0595 µM) | 1 (≈ 1.98 µM) | 0.06 (≈ 0.119 µM) | < 0.015 | 0.03 (≈ 0.0595 µM) | 0.06 (≈ 0.119 µM) | CN1C(=O)CNc2cc(F)c(OCCNC[C@@H]3CN(c4cnc5c(n4)NC(=O)CS5)C(=O)O3)nc21 [Compound 7, (R)-5-(((2-((7-fluoro-4-methyl-3-oxo-1,2,3,4-tetrahydropyrido[2,3-b]pyrazin-6-yl)oxy)ethyl)amino)methyl)-3-(3-oxo-3,4-dihydro-2H-pyrazino[2,3-b][1,4]thiazin-6-yl)oxazolidin-2-one] | > 300 | completely devoid of any genotoxicity risk | 0.41 | >1000 | –
